US8952024B2, “Herbicidal pyrimidone derivatives” (E I du Pont de Nemours and Company, priority 2009, dated 2015)

Tests used:
wild oat (Avena fatua) = experiment: Test B pre-/postemergence plant response; assay type: in vivo; conditions: for Oat, Wild plant response rating (0 to 100 scale): postemergence, 0 is no effect, 100 is complete control; for Plant response rating, Oat, Wild: Postemergence
Procedure, shortened: (§1)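 Visual ratings on a 0–100 scale (100 = complete control) were made versus untreated controls 13–15 days after treatment in a greenhouse. Compounds in surfactant-containing non-phytotoxic solvent were applied preemergence to seeds in loam–sand blend or postemergence to 1- to 4-leaf plants (2–18 cm).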

[1] = tested on: galium (catchweed bedstraw, Galium aparine); experiment: Test B pre-/postemergence plant response; assay type: in vivo; conditions: Postemergence
Procedure, shortened: as §1

[2] = 31 g ai/ha, 0 to 100 scale (0 no effect, 100 complete control)
[3] = 125 g ai/ha, scale 0 to 100 (0 no effect, 100 complete control)
[4] = 250 g ai/ha, scale 0 to 100 (0 no effect, 100 complete control), 13 to 15 days
[5] = 62 g ai/ha, scale 0 to 100 (0 no effect, 100 complete control)
[6] = 125 g ai/ha, scale 0 (no effect) to 100 (complete control), 13 to 15 days

Compound | Oat, Wild plant response rating (0 to 100 scale) (wild oat (Avena fatua); 62 g ai/ha, 13 to 15 days) | Plant response rating, Oat, Wild (wild oat (Avena fatua); [2]) | Plant response rating, Oat, Wild (wild oat (Avena fatua); [3]) | Plant response rating, Oat, Wild (wild oat (Avena fatua); [4]) | further results
COCCCn1c(-c2cccc(Br)c2)ncc(C(=O)C2=C(O)CCCC2=O)c1=O [Compound 140] | 5 | 0 | 10 | 40 | 
CCCn1c(-c2cccc(Br)c2)ncc(C(=O)C2=C(O)CCCC2=O)c1=O [Compound 141] | 10 | 10 | 15 | 40 | 
CCCCn1c(-c2cccc(Cl)c2)ncc(C(=O)C2=C(O)CCCC2=O)c1=O [Compound 146] | 20 | 0 | 50 | 70 | 
COCCn1c(-c2cccc(Cl)c2)ncc(C(=O)C2=C(O)CCCC2=O)c1=O [Compound 147] | 10 | 5 | 20 | 45 | 
CCCn1c(-c2cc(F)cc(F)c2)ncc(C(=O)C2=C(O)CCCC2=O)c1=O [Compound 152] | 45 | 30 | 80 | 85 | 
CCCn1c(-c2cccc(C(F)(F)F)c2)ncc(C(=O)C2=C(O)CCCC2=O)c1=O [Compound 155] | 40 | 10 | 60 | 70 | 
CCCn1c(-c2cc(C)cc(C)c2)ncc(C(=O)C2=C(O)CCCC2=O)c1=O [Compound 156] |  | 5 | 35 | 50 | 
Cc1ccc(F)cc1-n1c(-c2cccc(Cl)c2)ncc(C(=O)C2=C(O)CCCC2=O)c1=O [Compound 157] |  | 30 | 60 | 70 | 
Cc1ccccc1-n1c(-c2cc(F)cc(F)c2)ncc(C(=O)C2=C(O)CCCC2=O)c1=O [Compound 159] |  | 60 |  |  | Plant response rating, Oat, Wild (wild oat (Avena fatua); 8 g ai/ha, 0 to 100 scale): 0; Plant response rating, Oat, Wild (wild oat (Avena fatua); 16 g ai/ha, 0 to 100 scale): 35
O=C1CCCC(O)=C1C(=O)c1cnc(-c2ccccc2)n(C2CCSCC2)c1=O [Compound 164] |  | 25 | 85 | 90 | 
O=C1CCCC(O)=C1C(=O)c1cnc(-c2cc(F)cc(F)c2)n(C2CCCCC2)c1=O [Compound 181] |  | 65 | 90 | 100 | 
Cc1ccc(Cl)cc1-n1c(-c2cccc(F)c2)ncc(C(=O)C2=C(O)CCCC2=O)c1=O [Compound 184] |  | 40 | 80 | 98 | Plant response rating, Galium [1, 2]: 50; Plant response rating, Galium [1, 3]: 60; Plant response rating, Galium [1, 4]: 60
CC1(C)CC(=O)C(C(=O)c2cnc(-c3ccccc3)n(-c3ccccc3)c2=O)=C(O)C1 [Compound 225] |  | 45 |  |  | Plant response rating, Oat, Wild (wild oat (Avena fatua); 16 g ai/ha, 0 to 100 scale): 25; Plant response rating, Oat, Wild (wild oat (Avena fatua); [5]): 50
CCCn1c(-c2ccsc2)ncc(C(=O)C2=C(O)C3CCC(C3)C2=O)c1=O (centres unmarked) [Compound 227] |  | 0 |  | 30 | Plant response rating, Oat, Wild (wild oat (Avena fatua); [5]): 0
O=C(C1=C(O)C2CCC(C2)C1=O)c1cnc(-c2ccsc2)n(CC2CCCO2)c1=O (centres unmarked) [Compound 229] |  | 0 |  | 35 | Plant response rating, Oat, Wild (wild oat (Avena fatua); [5]): 5
CCCCn1c(-c2cccc(F)c2)ncc(C(=O)C2=C(O)C3CCC(C3)C2=O)c1=O (centres unmarked) [Compound 237] |  | 40 |  | 90 | Plant response rating, Oat, Wild (wild oat (Avena fatua); [5]): 55; Plant response rating, Oat, Wild (wild oat (Avena fatua); [6]): 60
CCn1c(-c2ccccc2)ncc(C(=O)C2=C(O)C3CCC(C3)C2=O)c1=O (centres unmarked) [Compound 239] |  | 0 |  | 30 | Plant response rating, Oat, Wild (wild oat (Avena fatua); [5]): 5; Plant response rating, Oat, Wild (wild oat (Avena fatua); [6]): 5
